Reference: article PMC3064226 (The Journal of Biological Chemistry, 2011)

Target: T1, PfnPrx (His6-nPrx1-164) (Plasmodium falciparum, UniProt Q8IJD0)
T1 sequence (Q8IJD0 1-164): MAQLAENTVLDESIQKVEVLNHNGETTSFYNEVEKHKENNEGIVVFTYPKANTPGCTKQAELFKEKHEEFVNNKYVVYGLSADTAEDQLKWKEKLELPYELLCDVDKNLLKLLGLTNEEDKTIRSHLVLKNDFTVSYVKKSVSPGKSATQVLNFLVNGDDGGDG
Test: NADPH oxidation at […] nm, coupled to glutathione reductase/GSH/PfGrx1
Type: biochemical
Settings: read-out: apparent Km; 10 μM PfGrx1, 1 mM GSH, 200 μM NADPH, 100 mM HEPES pH 7.6, 1 mM EDTA, 25 °C

CC(C)(OO)c1ccccc1 [cumene hydroperoxide]
Km: ~30 µM
